{"source": "paper PMC7785020", "about": "“A unique hormonal recognition feature of the human glucagon-like peptide-2 receptor” (Cell Research, 2020)", "key": {"[1]": {"target": "T1, GLP-2R mutant ECL1 (poly-alanine) (Homo sapiens, UniProt O95838, D244A/DELINS236-257AAAAAAAAAAAAAAAAAAAAAA/E246A/E255A/G248A/K241A/L253A/M250A/M256A/N237A/N245A/N247A/P243A/R242A/S238A/S240A/S251A/S254A/S257A/W249A/Y236A/Y239A/Y252A)", "T1 construct": "WT (1–553); expressed in transfected cells; host or cells: COS-7", "experiment": "radioligand competition binding, ECL1 (poly-alanine)", "details": "COS-7, ECL1 (residues 236–257) substituted by poly-alanine; [^125I]GLP-2(1–33, M10Y) 10–15 pM, 4 h, 4 °C; mean ± SEM, n ≥ 3 in duplicate", "experimental": "A stepwise oxidation reaction was performed by addition of 6 aliquots of 5 µL ChloramineT (30 µL/mL) with a 1-min interval during constant stirring. The reaction was terminated by the addition of 400 µL phase A (0.1% trifluoracetic acid) before being fractionated into 1 mL volume by reverse-phase high-performance liquid chromatography (RP-HPLC, Waters 600 SimiPrep system) on a C18 column. The iodinated protein was […] by increasing concentrations of phase B (Acetonitrile + 0.1% TFA) and tested for competitive binding ability.\nOne day before transfection, the COS-7 cells were seeded in 75 cm^2 culture flasks (3 million cells/flask) in DMEM, containing 3.9 g/L NaHCO3 and supplemented with 10% FBS, 1% L-glutamine, 180 units/mL penicillin and 45 µg/mL streptomycin. […] Following 24-h incubation, the cells were transferred to Costa® microtiter plates (150,000 cells/well, PerkinElmer) to achieve a 5%–10% specific binding. Forty-eight hours after transfection, the cells were washed twice in binding buffer (50 mM HEPES, pH 7.4, supplemented with 1 mM CaCl2, 5 mM MgCl2 and 0.5% (w/v) BSA) and incubated for 15 min at 4 °C. […] The cells were then washed twice in binding buffer (4 °C), lysed and counted for radioactivity using a Wallac Gamma Counter (PerkinElmer)."}, "[2]": {"target": "T2, GLP-2R (1-490)-LgBiT (Homo sapiens, UniProt O95838)", "T2 construct": "the C-terminus-truncated GLP-2R(1–490)-LgBiT; HA signal peptide (N); TEV site-OMBP-MBP (C); expressed in transfected cells; host or cells: HEK 293T", "T2 sequence (O95838 1-490)": "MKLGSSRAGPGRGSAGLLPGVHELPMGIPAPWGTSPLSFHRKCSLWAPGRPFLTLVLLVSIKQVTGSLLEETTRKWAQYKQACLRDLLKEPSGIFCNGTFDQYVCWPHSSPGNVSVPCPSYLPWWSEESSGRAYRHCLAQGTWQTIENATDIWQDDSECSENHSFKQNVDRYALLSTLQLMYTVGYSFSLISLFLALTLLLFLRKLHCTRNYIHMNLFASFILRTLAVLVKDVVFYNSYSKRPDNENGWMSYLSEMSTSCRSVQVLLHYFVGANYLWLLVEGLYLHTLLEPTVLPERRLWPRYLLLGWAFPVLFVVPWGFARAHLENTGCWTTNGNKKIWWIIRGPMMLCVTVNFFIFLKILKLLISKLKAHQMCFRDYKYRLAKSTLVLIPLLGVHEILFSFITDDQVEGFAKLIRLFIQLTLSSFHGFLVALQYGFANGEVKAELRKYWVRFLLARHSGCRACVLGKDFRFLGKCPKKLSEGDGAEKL", "experiment": "cAMP accumulation, truncated construct", "format": "cell-based", "details": "Table S2, GLP-2R (1-490)-LgBiT; HEK 293T, 30 min, RT; mean ± SEM, n ≥ 3 in duplicate; read-out: cAMP accumulation Emax (% WT)", "experimental": "(§1) HEK 293T cells were cultured in Dulbecco’s Modified Eagle’s Medium (DMEM) (Gibco, Waltham, USA) supplemented with 10% (v/v) fetal bovine serum (FBS) (Gibco) and 1% (v/v) sodium pyruvate (Gibco) at 37 °C, 5% CO2 in a humidified incubator. They were seeded onto 6-well cell culture plates and transiently transfected with different GLP-2R constructs using Lipofectamine 2000 transfection reagent (Invitrogen, Carlsbad, CA, USA). After 24 h, the transfected cells were seeded onto 384-well microtiter plates (3000 cells per well) in HBSS supplemented with 5 mM HEPES, 0.1% (w/v) bovine serum albumin (BSA) and 0.5 mM 3-isobutyl-1- methylxanthine, and stimulated with increasing concentrations of GLP-2 for 30 min at RT. Eu and Ulight were diluted by cAMP detection buffer and added to the plates separately to terminate the reaction. Plates were incubated at RT for 60 min before measuring the fluorescence intensity at 620 nm and […] by an EnVision multilabel plate reader (PerkinElmer, Boston, USA)."}, "[3]": {"target": "T3, GLP-2R H268^3.37A (Homo sapiens, UniProt O95838, H268A)", "T3 sequence (O95838 1-553 H268A)": "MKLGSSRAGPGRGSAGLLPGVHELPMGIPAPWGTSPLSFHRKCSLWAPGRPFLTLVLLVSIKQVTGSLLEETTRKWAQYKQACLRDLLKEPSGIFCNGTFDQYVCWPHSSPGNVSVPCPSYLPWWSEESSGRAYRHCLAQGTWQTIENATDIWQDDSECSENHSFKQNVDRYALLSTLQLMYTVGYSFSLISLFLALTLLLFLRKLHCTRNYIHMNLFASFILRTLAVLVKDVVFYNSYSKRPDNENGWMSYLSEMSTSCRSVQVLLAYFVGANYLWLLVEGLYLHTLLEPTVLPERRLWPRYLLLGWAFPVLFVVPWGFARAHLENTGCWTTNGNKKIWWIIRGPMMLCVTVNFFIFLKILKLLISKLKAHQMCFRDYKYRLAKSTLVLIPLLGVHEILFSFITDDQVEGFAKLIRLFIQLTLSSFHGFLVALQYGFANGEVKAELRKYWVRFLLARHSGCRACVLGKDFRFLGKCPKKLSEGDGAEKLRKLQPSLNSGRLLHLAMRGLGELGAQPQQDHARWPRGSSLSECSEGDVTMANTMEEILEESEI", "experiment": "cAMP accumulation, H268^3.37A", "format": "cell-based", "design": "WT (1–553); expressed in transfected cells; HEK 293T (cAMP)", "details": "Table S3, H268A; HEK 293T, 30 min, RT; mean ± SEM, n ≥ 3 in duplicate; read-out: cAMP Emax (% WT)", "experimental": "as §1"}, "[4]": {"target": "T4, GLP-2R N334^ECL2A (Homo sapiens, UniProt O95838, N334A)", "T4 sequence (O95838 1-553 N334A)": "T3 sequence (O95838 1-553 H268A) with A268H, N334A", "experiment": "cAMP accumulation, N334^ECL2A", "format": "cell-based", "design": "GLP-2R (1-553) (WT); expressed in transfected cells; host or cells: HEK 293T", "details": "Table S3, N334A; HEK 293T, 30 min, RT; mean ± SEM, n ≥ 3 in duplicate; read-out: cAMP Emax (% WT)", "experimental": "as §1"}}, "note": "Positions count from the first letter of the chain named.", "data": [{"smiles": "CC[C@H](C)[C@H](NC(=O)[C@H](Cc1ccccc1)NC(=O)[C@H](CC(=O)O)NC(=O)[C@H](CCCNC(=N)N)NC(=O)[C@H](C)NC(=O)[C@H](C)NC(=O)[C@H](CC(C)C)NC(=O)[C@H](CC(N)=O)NC(=O)[C@H](CC(=O)O)NC(=O)[C@H](CC(C)C)NC(=O)[C@@H](NC(=O)[C@@H](NC(=O)[C@H](CC(N)=O)NC(=O)[C@H](CCSC)NC(=O)[C@H](CCC(=O)O)NC(=O)[C@H](CC(=O)O)NC(=O)[C@H](CO)NC(=O)[C@H](Cc1ccccc1)NC(=O)[C@H](CO)NC(=O)CNC(=O)[C@H](CC(=O)O)NC(=O)[C@H](C)NC(=O)[C@@H](N)Cc1c[nH]cn1)[C@@H](C)O)[C@@H](C)CC)C(=O)N[C@@H](CC(N)=O)C(=O)N[C@@H](Cc1c[nH]c2ccccc12)C(=O)N[C@@H](CC(C)C)C(=O)N[C@H](C(=O)N[C@@H](CCC(N)=O)C(=O)N[C@H](C(=O)N[C@@H](CCCCN)C(=O)N[C@H](C(=O)N[C@H](C(=O)N[C@@H](CC(=O)O)C(=O)O)[C@@H](C)O)[C@@H](C)CC)[C@@H](C)O)[C@@H](C)CC", "note": "[Human GLP-2 (1–33)]", "values": [{"measurement": "% Binding of WT", "setting": "[1]", "value": "3.0 ± 1.1", "unit": "%"}, {"measurement": "Emax", "setting": "[2]", "value": "85.3 ± 4", "unit": "%"}, {"measurement": "Emax", "setting": "[3]", "value": "118 ± 22.6", "unit": "%"}, {"measurement": "Emax", "setting": "[4]", "value": "103 ± 2.9", "unit": "%"}]}]}
